Test results taken from patent US8629300B2, “Arylamine-substituted divinyl fluorenes and their use for electrophotographic applications, and for OLEDs (organic light emitting devices)” (Sensient Imaging Technologies GmbH, priority 2006, dated 2014).

Assay: Solubility analysis in methylen chloride or THF
Assay type: physicochemical
Procedure: Compound 12 complies with the solubility requirements set by the industry of 1 g substance/6 ml methylen chloride or THF. This compound was scaled up to 35 g. The compound was brought to an HPLC purity of >99.5% by using conventional purification methods, like e.g. recrystallization or column chromatography.

In the case of `Cc1ccc(N(c2ccc(C)cc2)c2ccc(/C=C/c3ccc4c(c3)C(C)(C)c3cc(/C=C/c5ccc(N(c6ccc(C)cc6)c6ccc(C)cc6)cc5)ccc3-4)cc2)cc1` [Compound 12, 2,7-Bis-(4-di-p-tolylaminophenylethenyl)-9,9-dimethyl-9H-fluorene], the “solubility (complies with the solubility requirements set by the industry)” value is reported as no less than 1 g substance/6 ml.
